Patent US8956589B2, “Imaging diagnostic agent and extracorporeal diagnostic agent for incurable neurological diseases” (Shiga University of Medical Science, priority 2009, dated 2015)

Assays:
[1] = target: T1, amyloid β peptide aggregates (Homo sapiens (Human), UniProt P05067); test: Quantity determination of amyloid β aggregates by flow cytometry with anti-Aβ antibody microspheres; conditions: FACS, 5 to 60 minutes at 4° C., background of nonspecific IgG1 microspheres subtracted
Description: The washing operation was performed as follows: 0.75 mL of PBS-T was added, the resultant mixture was centrifuged at 10,000×G for 5 minutes, and then the supernatant was removed. […] During the reaction, the mixture was agitated every 5 to 15 minutes. After the reaction, the microspheres were washed 3 times by the same method above, then suspended in PBS-T 0.25 mL, and kept at 4° C. until they were used. Negative control microspheres were prepared by use of a nonspecific mouse IgG1 antibody (by SIGMA, No. M 9269, mouse myeloma-derived IgG1, 1 mg/mL) by the same method. […] By subtracting as a background the analysis value of the negative control microspheres to which the nonspecific mouse IgG1 antibody was bound, the number of counts of anti Aβ antibody-specific fluorescence positive microsphere particles was determined.

[2] = target: amyloid β peptide aggregates (1-40) (Homo sapiens (Human), UniProt P05067); assay type: binding; conditions: aggregates 1 μM, thioflavin-T 3 μM, compound 0.02 to 20 μM, 30 minutes at 23° C., pH 7.4; read-out: Amyloid binding property (IC50)
amyloid β peptide aggregates (1-40), sequence (P05067 672-711): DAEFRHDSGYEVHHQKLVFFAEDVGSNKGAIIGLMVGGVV
Description: The binding capacity of the compounds to an amyloid β peptide aggregate was quantitatively measured by a thioflavin-T fluorescence inhibition test. […] The resultant solution was cause to react for 30 minutes at 23° C. with the light shielded. Then, the fluorescence of thioflavin-T was measured under a condition of Ex=440 nm, Em=490 nm, Cutoff filter=475 nm. The IC50 values were calculated by using an analysis software, GraphPad PRISM Ver.5 (GraphPad Software, Inc.).

senile plaques = test: Brain tissue staining after in vivo administration; design: species or system mouse
Description: The brain of the mouse scanned by ^19F-MRI in test example 2 was taken out and fixed for 2 days in a 4%-formalin solution, and then placed in a 15%-sucrose solution for cryoprotection. Then, a 20 μm-thick slice was created by a cryostat. Next, the slice was caused to react with a rabbit antihuman amyloid β polyclonal antibody (IBL, 0.2 μg/ml) at 4° C. overnight. Further, the sample was washed with PBS-T for 10 minutes 3 times, and then caused to react with Alexa 647 anti-rabbit IgG antibody (Molecular Probes, 500-fold dilution) for 4 hours at room temperature. This sample was washed with PBS-T for 10 minutes 3 times, and then counterstained with cresyl violet for 1 minute. Then, the sample was further washed with distilled water, and then enclosed with glycerol, and this sample was used for observation. The binding capacity of the compound to a senile plaque was observed by an inverted fluorescence microscope. It should be noted that a compound image was measured by use of the FITC filter and an amyloid β protein image was measured by means of the Cy5 filter. The same treatment was performed onto a normal mouse.

senile plaque = test: 19F-MR image measurement in amyloid precursor protein transgenic mouse (Tg2576); assay type: in vivo; conditions: tail vein, 8 mg/ml 250 μl, measured for 3 hours after 3 hours post administration
Description: A quantity of 4.5 mg of compound (I) was measured, and 0.112 ml of Cremophol EL was added to the measured compound. The compound was dissolved by use of a glass stick while the mixture being heated. Then, 0.45 ml of saline was added to the mixture to prepare an administration solution (8 mg/ml).
This administration solution 250 μl was administered, in one shot (about 90 seconds), to the tail vein of an amyloid precursor protein transgenic mouse (Tg2576, created according to the method disclosed in Science, 274,99 (1996)) under anesthesia by pentobarbital sodium.
After the administration was ended, with the mouse under anesthesia, the head of the mouse was continuously measured in units of 1 hour by use of an MRI device. Then, pieces of data were added to create images. ^19F-MRI brain images were obtained by chemical shift imaging method (CSI method). The MRI device that was used was 7T Unity Inova MR Scanner (by Varian).

[3] = target: T1, amyloid β peptide aggregates; test: Model experiment of in-vitro diagnostic agent (colour change of solution)
Description: Amyloid β peptide aggregates were prepared by the method described in test example 6, and caused to precipitate in the solution by prolonging the reaction time. After the aggregates were prepared in this manner, the precipitation containing the amyloid β peptide aggregates and a supernatant not containing the amyloid β peptide aggregates were separated. The precipitation containing the amyloid aggregates was suspended at a concentration of 100 μM, in a buffer. Then, each of compounds 23 and 1 was dissolved at a concentration of 20 μg/ml in a 50 mM phosphate buffer (pH 7.5) containing 100 mM NaCl. For each compound, four kinds of liquid mixtures were prepared, that is, a liquid mixture obtained by adding 100 μl of a buffer into 100 μl of the compound containing solution (A of FIG. 13); a liquid mixture obtained by adding 100 μl of a buffer in which amyloid β peptides before agglutination reaction were dissolved, to 100 μl of the compound containing solution (B of FIG. 13); a liquid mixture obtained by adding 100 μl of a buffer in which amyloid β peptide aggregates were suspended, to 100 μl of the compound containing solution (C of FIG. 13); and a liquid mixture obtained by adding 100 μl of a buffer in which amyloid β peptide aggregates were suspended, to 100 μl of a buffer not containing a compound (D of FIG. 13). Then, the four kinds of liquid mixtures were left to stand at room temperature. […] Only the sample in which compound 1 and amyloid β peptide aggregates were mixed began to be stained in red after 5 minutes, and the color became gradually stronger and changed into strong red after about 30 minutes. […] When the absorption spectrum of the sample that had turned into red was measured, the peak had shifted towards a longer wavelength. […] As a result, it is considered that the keto/enol equilibrium in the solution was lost, and structural changes happened, that is, the keto bodies newly turned into enol bodies in the solution.

[4] = target: T1, amyloid β peptide aggregates; test: Binding to and release from precipitated amyloid β peptide aggregates (absorbance of supernatant)
Description: Each of compound 23, compound 1, and compound 24 is dissolved at a concentration of 2 μg/mL, in a phosphate buffer, and then amyloid β peptide aggregates are added to each solution, and the resultant solution is caused to react for 1 hour. Then, the solution is centrifuged for 10 minutes at 6,000 rpm, to separate the amyloid β peptide aggregates. A supernatant was removed, and an absorbance measurement was performed to measure the quantity of the compound that had not bound to the amyloid peptide aggregates and that were contained in the supernatant. The obtained quantity was subtracted from the original quantity of the compound, whereby the quantity of the compound that had bound to the amyloid β peptide aggregates was calculated.
Next, the precipitated amyloid β peptide aggregates were washed, a buffer was added thereto, and the quantity of the compound that got released was measured. Then, the rate of the compound that had bound to amyloid β peptide aggregates and then was eluted into the buffer was calculated using the original quantity of the compound as 100%.

[5] = compound 20 μg/ml solution mixed with amyloid β peptide aggregates, room temperature

T1 sequence (P05067 672-711): as above

## COC(=O)CCC(C(=O)/C=C/c1ccc(O)c(OC(F)(F)F)c1)C(=O)/C=C/c1ccc(O)c(OC(F)(F)F)c1 [Compound 1, 1,7-bis(4′-hydroxy-3′-trifluoromethoxyphenyl)-4-methoxycarbonylethyl-1,6-heptadiene-3,5-dione]
[1]
  counts of fluorescence positive microsphere particles depending on aggregate concentration: quantitativeness was confirmed
[2]
  IC50: 440 nM
Senile plaques; Tg2576 mouse after i.v. administration
  transmissiveness through the blood-brain barrier: confirmed
Senile plaques; brain slices of Tg2576 mouse after i.v. administration, fluorescence vs amyloid β antibody stain
  binding to senile plaques in vivo: sufficient binding
Senile plaque
  19F-MRI signal in brain: signals that are assumed to be corresponding to a senile plaque were detected in the brain
[3]; [5]
  time at which colour changed into strong red: about 30 minutes
  time at which sample began to be stained in red: 5 min
[3]; compound 20 μg/ml solution mixed with non-aggregated amyloid β peptides
  colour of sample with amyloid β peptides before agglutination reaction: did not change
[4]; compound 2 μg/mL in phosphate buffer, 1 hour reaction
  binding rate to amyloid β peptide aggregates: 57%
[4]; washed precipitated aggregates, buffer added, original quantity as 100%
  rate of compound released (eluted into buffer) from amyloid β peptide aggregates: highest value
